Key:
[1] = tested on: APT73 (SEQ ID NO: 4) variant APT73.47 (A156I, S205R, S223A, K225H, A260G, Y276L, G282R, A283C, S284L; residues 285 onward removed from the C-terminus), SEQ ID …; test: Kinetic characterization of purified enzyme with OA and GPP as substrates; format: biochemical; conditions: APT73.47, purified enzyme
Description: (§1) In order to compare the enzyme's activities more accurately, larger cultures of the best hits and controls from the first screen were grown and the enzymes were purified according to the following protocol. Glycerol stocks of each recombinant strain were used to inoculate 2 mL of LB with 50 μg/mL kanamycin. […]. The cultures were grown at 37° C. with 250 rpm shaking until an OD600 of approximately 0.8-1. At this point, the cultures were transferred to a shaker at room temperature for 30 min, after which they were induced with 0.25 mM IPTG. After 16 h at 150 rpm shaking, the cells were pelleted by centrifugation
(§2) Cell pellets were resuspended in 10 mL lysis buffer (B-PER with 5 mM MgCl2, 100 μg/mL lysozyme, and 2 μL/mL DNaseI (TURBO DNase ThermoFisher)). After incubation at room temperature for 10 min, the cell debris were removed by centrifugation at 4750 rpm for 10 min at 4° C. Lysates were loaded in pre-equilibrated cobalt spin columns (ThermoFisher, HisPur Cobalt spin column, 1 mL) and tagged proteins were purified according to manufacturer's protocol. The eluted proteins were exchanged into the final buffer (TrisHCl 25 mM, 5 mM MgCl2, 150 mM NaCl 10% v/v glycerol) using Amicon Ultra 15 centrifugal filters (10 kDa MWCO). Proteins can be stored at −20° C. for at least a week.
(§3) Selected mutants from the previous screenings were cloned in E. coli vectors and were purified as described in Example 3.

[2] = tested on: APT73 (SEQ ID NO: 4) variant APT73.30 (S205R, S223A, K225H, A260G, Y276L, G282R, A283C, S284L; residues 285 onward removed from the C-terminus), SEQ ID NO: 56; test: as above; format: biochemical; conditions: APT73.30, purified enzyme
Description: as §1, §2, §3

[3] = tested on: APT89, aromatic prenyltransferase, wild type, SEQ ID NO: 2 (expressed with His tag: SEQ ID NO: 9, 81); test: as above; format: biochemical
Description: as §1, §2, §3

[4] = tested on: APT73 (SEQ ID NO: 4) variant APT73.52 (S205R, S223A, K225H, A260G, Y276E, G282R, A283C, S284L; residues 285 onward removed from the C-terminus), SEQ ID NO: 69; test: as above; format: biochemical; conditions: APT73.52, purified enzyme
Description: as §1, §2, §3

[5] = tested on: APT73 (SEQ ID NO: 4) variant APT73.13 (S205R, G282R, A283C, S284L; residues 285 onward removed from the C-terminus), SEQ ID NO: 36; test: as above; format: biochemical; conditions: APT73.13, purified enzyme
Description: as §1, §2, §3

[6] = tested on: NphB, aromatic prenyltransferase from Streptomyces sp. (strain CL190), wild type, Uniprot ID: Q4R2T2, SEQ ID NO: 20; conditions: OA and GPP as substrates, from literature (Valliere et al. Nature Commun. 2019, 10, 565); cited from earlier work

Row | SMILES | Kcat (CBGA) [1] [s⁻¹] | Kcat (CBGA) [2] [s⁻¹] | Kcat (CBGA) [3] [s⁻¹] | Kcat (CBGA) [4] [s⁻¹] | Kcat (CBGA) [5] [s⁻¹] | Km [6] [µM] | Km [1] [µM] | Km [2] [µM] | Km [3] [µM] | Km [4] [µM] | Km [5] [µM]
1 | CCCCCc1cc(O)c(C/C=C(\C)CCC=C(C)C)c(O)c1C(=O)O [CBGA, cannabigerolic acid] | 0.175 | 0.113 | 0.001 | 0.08 | 0.049 |  |  |  |  |  | 
2 | CCCCCc1cc(O)cc(O)c1C(=O)O [OA, olivetolic acid] |  |  |  |  |  | 640 | 205 ± 165 | 501 ± 88 | 33 ± 4 | 101 ± 14 | 1100 ± 93

Source: patent US20250346871A1, “PRENYLTRANSFERASES AND METHODS OF MAKING AND USE THEREOF” (priority 2020, published 2025)
